Read-outs that look alike come from different tables or passages of the source.
Columns and labels:
CYP19A1 (Aromatase) = biological target: T1, CYP19A1 (Aromatase) (Homo sapiens, UniProt P11511); assay: Aromatase (CYP19A1) Inhibitor Screening Kit, recombinant enzyme; type: biochemical
T1 construct: purchased BioVision K984-100
T1 sequence (P11511 1-503): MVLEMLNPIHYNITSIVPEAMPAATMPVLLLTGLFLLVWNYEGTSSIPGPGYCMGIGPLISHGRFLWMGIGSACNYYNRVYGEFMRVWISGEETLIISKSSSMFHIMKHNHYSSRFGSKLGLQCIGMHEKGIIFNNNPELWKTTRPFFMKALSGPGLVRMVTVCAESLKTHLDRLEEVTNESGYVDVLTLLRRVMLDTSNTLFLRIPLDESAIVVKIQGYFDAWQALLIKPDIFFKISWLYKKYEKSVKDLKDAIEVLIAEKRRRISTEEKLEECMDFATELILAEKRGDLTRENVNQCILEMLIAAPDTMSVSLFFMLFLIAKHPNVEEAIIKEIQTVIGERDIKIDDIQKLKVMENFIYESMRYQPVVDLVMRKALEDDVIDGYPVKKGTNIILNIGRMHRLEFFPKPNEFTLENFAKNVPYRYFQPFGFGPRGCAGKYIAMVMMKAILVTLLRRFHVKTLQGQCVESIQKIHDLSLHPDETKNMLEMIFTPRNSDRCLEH
Method: The in vitro tests on Aromatase were performed by using the Kit Cat# K984-100 assay kit; the Regeneration System, 100× and NADP^+: (100×), 10 mM were used as reaction buffer. In particular, the enzyme was first prepared with the Regeneration System and substrate with NADP^+ in freshly prepared reaction buffer. Then, the resulting solution was delivered into the reaction well.

MCF-7 cells = assay: Cell proliferation assay (trypan blue cell count); type: cell-based, human; details: read-out: antiproliferative IC50
Method: MCF-7 and MDA-MB-231 cells were plated in 24-well plates and allowed to attach overnight. […] At the end of the treatment, viable cells (evaluated by trypan blue dye exclusion) were counted with a hemocytometer.

[1] = tested on: CYP11B2 (Aldosterone Synthase); details: cited from earlier work
[2] = biological target: CYP11B1 (11β-Hydroxylase); details: cited from earlier work

Q: For `OCc1cnc(S)n1Cc1ccc(Cl)cc1Cl` [X1], which “inhibition of CYP19A1” value (CYP19A1 (Aromatase)) is on record?
A: no inhibition

Q: Which IC50 (MCF-7 cells; Homo sapiens, MCF7, 24 h, MCF-7, 24 h) does the source give for `N#Cc1ccc(C(c2ccc(C#N)cc2)n2cncn2)cc1` [letrozole] here?
A: 764 ± 114 nM

Q: What about the IC50 (MCF-7 cells; Homo sapiens, MCF7, 48 h, MCF-7, 48 h) of the same compound?
A: 599 ± 333 nM

Q: What about the IC50 (MCF-7 cells; Homo sapiens, MCF7, 72 h, MCF-7, 72 h) of the same compound?
A: 121 ± 30 nM

Q: And the IC50 (MCF-7 cells; MCF-7, 72 h)?
A: 120 ± 30 nM

Q: And the IC50 [1]?
A: 1420 nM

Q: What about the IC50 [2] of the same compound?
A: 2620 nM

Q: For `O=[N+]([O-])c1cc(C(F)(F)F)ccc1Sc1ncc(CO)n1Cc1ccccc1` [X12, (1-Benzyl-2-((2-nitro-4-(trifluoromethyl)phenyl)thio)-1H-imidazol-5-yl)methanol], which melting point is on record?
A: 225.4 to 226.9 °C
